Consider 14 compounds from ChEMBL document CHEMBL1201862, “PubChem BioAssay data set” (2004).

Test systems include OVCAR-3; MCF7; MDA-MB-231; MDA-MB-435; NCI/ADR-RES; CCRF-CEM; Malme-3M; A498; DU-145; 786-0; OVCAR-5; MDA-N; SR; HOP-92; MOLT-4.
Common to all, as to test: growth of human tumour cells (NCI), 48 h

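Growth conditions: 96-well plates. Treatment: test compound, 48 hours, 5 concentrations. Analysis: linear interpolation between bracketing concentrations; unreached endpoints set to highest concentration. GI50 = concentration required for 50% inhibition of growth.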 Active and inactive are the calls of the source. Cut-off read from the data, not from the text of the source: active = GI50 up to about 1.1 µM and inactive = higher.

In the case of `O=C(O)C(Cc1ccc(O)cn1)NC(=O)C(F)(F)F` (stereo not drawn), the GI50 in the assay with OVCAR-3, in the assay with MCF7, in the assay on MDA-MB-231, with MDA-MB-435, in the assay on NCI/ADR-RES and in the assay on CCRF-CEM was > 100 µM (inactive) each time. The GI50 in the assay on Malme-3M, in the assay with A498, in the assay on DU-145, in the assay with 786-0, with OVCAR-5 and with MDA-N was > 100 µM (inactive) in each case. For the same compound, in the assay on SR, the GI50 was > 100 µM (inactive).
With `O=C(c1ccco1)C1CC(c2c(O)ccc3ccccc23)=NN1` (stereo not drawn), the GI50 is 12.2 µM (inactive) in the assay with OVCAR-3; 3.15 µM (inactive) in the assay on MCF7; 13.2 µM (inactive) in the assay on MDA-MB-231; 4.55 µM (inactive) in the assay with MDA-MB-435; 13.6 µM (inactive) in the assay on HOP-92; 17.9 µM (inactive) in the assay on NCI/ADR-RES. The GI50 in the assay with CCRF-CEM is 9.71 µM (inactive); in the assay with Malme-3M, 16 µM (inactive); in the assay with MOLT-4 it was 12.1 µM (inactive); in the assay with A498, 18.4 µM (inactive); in the assay with DU-145, 14.1 µM (inactive); in the assay with OVCAR-5, 14.9 µM (inactive). Further, the GI50 was 12.6 µM (inactive) in the assay on MDA-N and 2.72 µM (inactive) in the assay on SR.
Turning to `COC(=O)C1(Cc2ccccc2)Cc2cc3c(cc2C1)CCC3`, the GI50 is 33.7 µM (inactive) with OVCAR-3; 15.5 µM (inactive) with MCF7; 45.3 µM (inactive) in the assay with MDA-MB-231; 12.4 µM (inactive) in the assay with MDA-MB-435; 11 µM (inactive) in the assay on HOP-92; 35.5 µM (inactive) in the assay on NCI/ADR-RES. Further, the GI50 was 14.9 µM (inactive) in the assay with CCRF-CEM; 22.3 µM (inactive) in the assay with Malme-3M; 15.5 µM (inactive) with MOLT-4; 35.5 µM (inactive) in the assay on A498; 34.5 µM (inactive) with DU-145; 31.3 µM (inactive) in the assay with 786-0. The GI50 in the assay on OVCAR-5 was 27.7 µM (inactive); in the assay with MDA-N it was 16 µM (inactive); with SR it was 13 µM (inactive).
Turning to `CN(N)c1nc(N)c(C#N)c(C#N)c1C#N`, the GI50 in the assay with OVCAR-3, in the assay with MCF7, with MDA-MB-231, in the assay on MDA-MB-435, with HOP-92 and in the assay with NCI/ADR-RES was > 10 µM (inactive) in each case. Further, the GI50 in the assay with CCRF-CEM, in the assay with Malme-3M, with MOLT-4, in the assay with DU-145, with 786-0 and in the assay with OVCAR-5 was > 10 µM (inactive) throughout. For the same compound, the GI50 in the assay with MDA-N and in the assay with SR was > 10 µM (inactive) in each case.
In the case of `COc1ccc(N[S+]([O-])c2ccc(-c3ccccc3)cc2)cc1` (stereo not drawn), the GI50 in the assay with OVCAR-3 was > 100 µM (inactive); in the assay with MCF7 it was > 100 µM (inactive); with MDA-MB-231, > 100 µM (inactive); in the assay on MDA-MB-435, > 100 µM (inactive); in the assay on NCI/ADR-RES, 55 µM (inactive); with CCRF-CEM, > 100 µM (inactive). Moreover, the GI50 with Malme-3M was > 100 µM (inactive); in the assay with MOLT-4 it was > 100 µM (inactive); in the assay with DU-145, > 100 µM (inactive); in the assay with 786-0, > 10 µM (inactive); in the assay on OVCAR-5, > 100 µM (inactive); with MDA-N, 97.7 µM (inactive). Moreover, the GI50 in the assay with SR was > 100 µM (inactive).
`COc1ccc(/C=C2\CC3C4CC=C5C[C@@H](O)CC[C@]5(C)C4CC[C@]3(C)\C2=N\O)cc1OC` (stereo partly drawn): the GI50 in the assay on OVCAR-3 is 2.69 µM (inactive); with MCF7, 4.24 µM (inactive); in the assay on MDA-MB-231, 16.2 µM (inactive); with MDA-MB-435 it was 23.3 µM (inactive); in the assay with HOP-92, 29.2 µM (inactive); with NCI/ADR-RES it was 9.18 µM (inactive). Moreover, the GI50 is 18.2 µM (inactive) in the assay with CCRF-CEM; 33.3 µM (inactive) in the assay with Malme-3M; 5.37 µM (inactive) in the assay on MOLT-4; 5.4 µM (inactive) in the assay on A498; 26.1 µM (inactive) with DU-145; 5.71 µM (inactive) with 786-0. Also, the GI50 in the assay with OVCAR-5 is 16 µM (inactive); in the assay on MDA-N, 14.1 µM (inactive).
In the case of `CC(=O)OC/C=C\Cn1ncc(=O)[nH]c1=O`, the GI50 is 28.2 µM (inactive) with OVCAR-3; 13 µM (inactive) with MCF7; 34 µM (inactive) with MDA-MB-231; 18.2 µM (inactive) in the assay with MDA-MB-435; 15.8 µM (inactive) in the assay on HOP-92; 23.1 µM (inactive) in the assay with NCI/ADR-RES. The GI50 was 17.3 µM (inactive) in the assay on CCRF-CEM; 16.5 µM (inactive) in the assay with Malme-3M; 19.2 µM (inactive) in the assay on MOLT-4; 16.4 µM (inactive) with A498; 24.2 µM (inactive) with DU-145; 17.9 µM (inactive) in the assay on OVCAR-5. The GI50 in the assay on MDA-N was 14.9 µM (inactive).
In the case of `CC(=O)/N=C1/N(/C=C2\C(=O)Oc3ccccc3C2=O)C(=O)/C(=C/c2ccc(OC(C)=O)cc2)N1C`, the GI50 in the assay with OVCAR-3 is 83.4 µM (inactive); in the assay on MCF7 it was > 100 µM (inactive); in the assay with MDA-MB-231, > 100 µM (inactive); in the assay on MDA-MB-435, > 100 µM (inactive); in the assay on NCI/ADR-RES, > 100 µM (inactive); with CCRF-CEM it was > 100 µM (inactive). The GI50 in the assay with Malme-3M was > 100 µM (inactive); in the assay with MOLT-4 it was > 100 µM (inactive); in the assay with A498 it was 9.18 µM (inactive); with DU-145, > 100 µM (inactive); with 786-0, > 100 µM (inactive); with OVCAR-5, > 100 µM (inactive). Also, the GI50 in the assay with MDA-N and with SR was > 100 µM (inactive) in each case.
`CC(C)=C1C2CC3(C)CCC2(C)CCC13.CC1=CCC2C3(C)CCC2(C(C)C)C1C3` (stereo not drawn): the GI50 in the assay with OVCAR-3 was 16.5 µM (inactive); in the assay with MCF7, 19 µM (inactive); in the assay on MDA-MB-231, 22 µM (inactive); in the assay with MDA-MB-435 it was 28.9 µM (inactive); in the assay on HOP-92, 27.7 µM (inactive); in the assay with NCI/ADR-RES it was 18.4 µM (inactive). Also, the GI50 in the assay with CCRF-CEM was 24.5 µM (inactive); with Malme-3M, 43.8 µM (inactive); in the assay on MOLT-4, 31.9 µM (inactive); in the assay on A498 it was 34 µM (inactive); in the assay on DU-145, 29.4 µM (inactive); in the assay with 786-0, 21.5 µM (inactive). Moreover, the values for the GI50 in the assay with OVCAR-5 and in the assay on MDA-N were 18.9 µM (inactive) and 25.5 µM (inactive), respectively.
In the case of `CC1(C)CC[C@]2(C)CC[C@]3(C)C(=CC[C@@H]4[C@@]5(C)CCC(=O)C(C)(C)[C@@H]5[C@H](O)C[C@]43C)[C@@H]2C1`, the GI50 in the assay on OVCAR-3 is 16.5 µM (inactive); in the assay on MCF7, 19 µM (inactive); in the assay with MDA-MB-231, 11.5 µM (inactive); in the assay on MDA-MB-435 it was 19.9 µM (inactive); in the assay with HOP-92, 17.5 µM (inactive); in the assay on NCI/ADR-RES it was 19.6 µM (inactive). Moreover, the GI50 is 30.8 µM (inactive) in the assay on CCRF-CEM; 17.5 µM (inactive) in the assay with Malme-3M; 31.5 µM (inactive) in the assay with MOLT-4; 17.3 µM (inactive) with A498; 18.2 µM (inactive) in the assay on DU-145; 15.5 µM (inactive) in the assay on 786-0. For the same compound, the values for the GI50 with OVCAR-5 and in the assay with MDA-N were 16 µM (inactive) and 15.6 µM (inactive), respectively.
`CN1C2CCC1CC(C)(O)C2` (stereo not drawn): the GI50 in the assay on OVCAR-3, in the assay on MCF7, in the assay with MDA-MB-231, with MDA-MB-435, in the assay on NCI/ADR-RES and in the assay on CCRF-CEM was > 100 µM (inactive) each time. Besides, the GI50 in the assay with Malme-3M, in the assay on MOLT-4, with DU-145, in the assay with MDA-N and with SR was > 100 µM (inactive) throughout.
For the compound `CC1(C)[C@@H]2C[C@H]1C(Cc1ccccc1C[C@H]1c3cc(-c4ccccn4)ncc3[C@H]3C[C@@H]1C3(C)C)c1cc(-c3ccccn3)ncc12` (stereo partly drawn), the GI50 is 0.387 µM (active) in the assay on OVCAR-3; 0.362 µM (active) in the assay on MCF7; 0.587 µM (active) in the assay on MDA-MB-231; 0.416 µM (active) in the assay with MDA-MB-435; 1.91 µM (inactive) in the assay on NCI/ADR-RES; 0.223 µM (active) in the assay with CCRF-CEM. The GI50 is 0.678 µM (active) in the assay with Malme-3M; 0.236 µM (active) in the assay with MOLT-4; 0.673 µM (active) in the assay with A498; 0.375 µM (active) in the assay on DU-145; 0.253 µM (active) in the assay on 786-0; 0.791 µM (active) with OVCAR-5. In addition, the GI50 with MDA-N was 0.578 µM (active); with SR, 0.153 µM (active).
Take `N=c1c2c(=S)n(-c3ccccc3)c(=S)n(-c3ccccc3)c2nc(SCCCN2CCN(c3cccc(Cl)c3)CC2)n1-c1ccccc1`: the GI50 is > 100 µM (inactive) with OVCAR-3; 53.2 µM (inactive) in the assay with MCF7; 22.8 µM (inactive) with MDA-MB-231; 73.8 µM (inactive) in the assay with MDA-MB-435; 42.3 µM (inactive) with HOP-92; > 100 µM (inactive) in the assay with NCI/ADR-RES. The GI50 was > 100 µM (inactive) with CCRF-CEM; > 100 µM (inactive) in the assay with Malme-3M; > 100 µM (inactive) in the assay on MOLT-4; 50.7 µM (inactive) with A498; 52.8 µM (inactive) in the assay on DU-145; 26.4 µM (inactive) with OVCAR-5. Also, the GI50 in the assay on SR is > 100 µM (inactive).
As for `CCN1C(=O)C(=Cc2ccc(-c3ccccc3)cc2)C(=O)N(CC)C1=S`, the GI50 with OVCAR-3 was > 100 µM (inactive); in the assay with MCF7 it was > 100 µM (inactive); in the assay on MDA-MB-231 it was > 100 µM (inactive); in the assay on MDA-MB-435 it was > 100 µM (inactive); in the assay on HOP-92 it was > 100 µM (inactive); with NCI/ADR-RES, 34.7 µM (inactive). Further, the GI50 in the assay on CCRF-CEM was 48.9 µM (inactive); in the assay on Malme-3M it was > 100 µM (inactive); in the assay on MOLT-4, 30.3 µM (inactive); in the assay on DU-145, > 100 µM (inactive); with 786-0 it was > 100 µM (inactive); with OVCAR-5, > 100 µM (inactive).
